Measured values: patent publication US4088778A, “Method for the treatment of hypertension” (priority 1975, dated 1978)

What was measured:
Acute toxicity on rats = assay type: in vivo; conditions: mice and rats, maximum amount that can be administered
Description: Toxicities of TN and TA will now be described.

[1] = Subacute and chronic toxicities; assay type: in vivo; conditions: rats 100 to 1000 mg/Kg and beagles 100 mg/Kg daily, 3 or 6 months
Method: (B) Subacute and Chronic Toxicities:
TN and TA were separately administered to rats and beagles at daily doses of 100 to 1000 mg/Kg and 100 mg/Kg, respectively, continuously for 3 or 6 months.

[2] = Hypotensive effect on experimental hypertension caused by DOCA; assay type: in vivo, male wistar rats
Method: (A) Hypotensive effect on experimental hypertension caused by administration of desoxycorticosterone (hereinafter referred to as "DOCA"):
Right kidneys were removed from 6-week-old male wistar rats, and a 1% aqueous solution of sodium chloride was given as drinking water and 12.5 mg/Kg of DOCA was intramuscularly injected every week. The change of the blood pressure was examined over a period of 6 weeks.
48 rats, each having one kidney removed, were divided into 6 groups, each consisting of 8 rats, and each group was placed in a cage. With respect to each group, a gum arabic solution was administered to 2 rats as non-administered control animals. 20 mg/Kg of TN was administered once a day to each of two rats among the remaining 6 rats, and 100 mg/Kg of TN was administered once a day to each of two rats among the remaining 4 rats. 88 mg/Kg of TA was administered once a day to each of the remaining two rats. TN and TA were administered in the form of a suspension in gum arabic. The blood pressure was measured by a Shimazu type systolic pressure continuous recording apparatus detecting pulse waves of rats taken in a thermostat fixed box maintained at 30° C.

[3] = Clinical Test I, double blind: blood pressure; assay type: in vivo, human patients; conditions: for Maximum Blood Pressure in Hypertensives, Average Value ± S.D. / Maximum Blood Pressure, Average Value±S.D.: in mmHg (unit assumed)
Method: 94 patients of hypertension or arteriosclerosis having subjective symptoms were tested, and some of them suffered from complications such as ischemia heart disease, hypertensive heart disease and encephalomalacia.
As the active drug, there were employed hard capsules, each containing 100 mg of TN.
Two capsules were orally administered at one time, and the administration was conducted three times a day after eating. The period of the administration was principally 4 weeks or 6 weeks. During this period, the administration was performed continuously. Combined administration of drugs having the same function as that of TN (vitamin E drugs, nicotinic acid, its derivatives and peripheral vasolidators) was prohibited. Drugs which had been continuously administered since before the start of the administration of TN were similarly administered according to the disease case and symptom, and change of the prescription during the test was avoided.
With respect to data collected separately in the TN group and the P group, the significant difference was examined according to the statistical method.

[4] = Clinical Experiment II: liver function test; assay type: in vivo, human patients; set-up: GOT, Average Value / GPT, Average Value / LDH, Average Value / ALP, Average Value: unit not given here
Method: (§1) 75 patients of hypertension or arteriosclerosis having subjective symptoms were tested. Some of them suffered from complications such as ischemia heart disease and cerebral thrombosis. They are detailed in Table 11.
(§2) Two capsules were administered at one time, and the administration was conducted 3 times per day after eating. The duration of the continuous administration was 4 weeks. Combined use of drugs having the same functions as those of TN (vitamin E drugs, nicotinic acid, its derivatives and peripheral vasolidators) and minor tranquilizers was prohibited.

[5] = Clinical Experiment II: kidney function test; assay type: in vivo, human patients; conditions: in mg/dL (unit assumed)
Method: as §1, §2
The kidney function test results are shown in Table 17, from which it will readily be understood that the variation of BUN values was within the normal region.

[6] = Clinical Experiment II: urine test; assay type: in vivo, human patients
Method: as §1, §2

[7] = Clinical Experiment II: improvement of subjective symptoms; assay type: in vivo, human patients
Method: as §1, §2
Changes of various subjective symptoms of patients of hypertension were collectively examined, and at the time of termination of the administration, the degrees of improvements were judged and evaluated in both the TN administered group and the P group, to obtain results shown in Table 22.

[8] = Clinical Experiment II: side effects; assay type: in vivo, human patients
Method: as §1, §2

Solubility = assay type: physicochemical
[9] = 2 weeks, N 34, TN 200 mg three times a day
[10] = 4 weeks, N 38, TN 200 mg three times a day
[11] = 6 weeks, N 20, TN 200 mg three times a day
[12] = before administration, N 43, all patients (Table 6)
[13] = conclusion of both clinical experiments

Cc1c(C)c2c(c(C)c1OC(=O)c1cccnc1)CCC(C)(CCCC(C)CCCC(C)CCCC(C)C)O2 (racemic) [TN, dl-α-tocopheryl nicotinate]
animals killed in acute toxicity test (Acute toxicity on rats): no test animal was killed | deaths [1]: no deaths | haematological, haemetobiological and histological surveys [1]: no manifestation of the toxicity was observed | inhibition of the body weight [1]: inhibition of the body weight was not observed | number of rats with blood pressure elevated to 170 mm Hg or higher ([2]; 20 mg/kg of TN once a day, among 10 rats (control 9 among 11)): 5 rats | effect on increase of the blood pressure ([2]; 100 mg/kg of TN): especially conspicuous | number of rats with blood pressure elevated to 170 mm Hg or higher ([2]; 100 mg/kg of TN once a day, among 12 rats (control 9 among 11)): 3 rats | hypotensive effect, overall conclusion from pharmacological tests on animals ([2]; DOCA rats, old SHR, young SHR): have a hypotensive effect | maximum blood pressure in patients of hypertension ([3]; 2, 4 or 6 weeks' administration): lowered by 2, 4 or 6 weeks' administration below the maximum blood pressure before the start of the administration | Maximum Blood Pressure in Hypertensives, Average Value ± S.D. ([3]; 2 weeks, N 28, P < 0.05 vs before): 143.8 ± 21.0 | Minimum Blood Pressure, Average Value±S.D. [3, 9]: 82.4±11.4 | Maximum Blood Pressure, Average Value±S.D. [3, 9]: 139.7±21.1 | Maximum Blood Pressure in Hypertensives, Average Value ± S.D. ([3]; 4 weeks, N 29, P < 0.02 vs before): 143.1 ± 21.1 | Minimum Blood Pressure, Average Value±S.D. [3, 10]: 80.6±10.3 | Maximum Blood Pressure, Average Value±S.D. [3, 10]: 140.0±20.3 | Maximum Blood Pressure in Hypertensives, Average Value ± S.D. ([3]; 6 weeks, N 13, P < 0.05 vs before): 139.2 ± 16.8 | Minimum Blood Pressure, Average Value±S.D. [3, 11]: 79.1±7.0 | Maximum Blood Pressure, Average Value±S.D. [3, 11]: 138.1±15.2 | patients in whom administration was interrupted ([3]; TN 200 mg three times a day, 4 or 6 weeks, P group 3 patients): 2 patients | Minimum Blood Pressure, Average Value±S.D. [3, 12]: 84.4±13.7 | Maximum Blood Pressure, Average Value±S.D. [3, 12]: 147.6±23.6 | Maximum Blood Pressure in Hypertensives, Average Value ± S.D. ([3]; before administration, same 13 patients as 6 weeks): 151.2 ± 28.9 | Maximum Blood Pressure in Hypertensives, Average Value ± S.D. ([3]; before administration, same 28 patients as 2 weeks): 151.0 ± 22.1 | Maximum Blood Pressure in Hypertensives, Average Value ± S.D. ([3]; before administration, same 29 patients as 4 weeks): 154.6 ± 24.8 | variation of GOT, GPT, LDH and ALP ([4]; Table 16): the variation was within the normal region | GOT, Average Value ([4]; after administration, N 29, S.D. ±9.51): 24.90 | ALP, Average Value ([4]; after administration, N 30, S.D. ±2.21): 7.21 | GPT, Average Value ([4]; after administration, N 30, S.D. ±13.40): 18.73 | LDH, Average Value ([4]; after administration, N 30, S.D. ±53.94): 245.03 | ALP, Average Value ([4]; before administration, N 34, S.D. ±2.36): 7.37 | LDH, Average Value ([4]; before administration, N 36, S.D. ±72.42): 251.28 | GOT, Average Value ([4]; before administration, N 37, S.D. ±14.92): 28.59 | GPT, Average Value ([4]; before administration, N 37, S.D. ±19.46): 22.73 | tendency of reduction of GOT and GPT ([4]; versus P group): greater in the TN administered group than in the P group | BUN, Average Value ([5]; after administration, N 27, S.D. ±8.48): 14.99 | BUN, Average Value ([5]; before administration, N 31, S.D. ±6.23): 14.74 | urine specific Gravity, Average Value ([6]; after administration, N 25, S.D. ±5.34): 1017.92 | urine specific Gravity, Average Value ([6]; before administration, N 25, S.D. ±5.56): 1017.56 | Improvement of subjective symptoms: Improvement Ratio ([7]; P group 52.94, P < 0.05): 86.36% | degree of improvement of subjective symptoms versus P group [7, 13]: higher than in the P group | improving rush of blood, dizzy feeling, stiffness in the shoulders, stiffness in the nape, heaviness in the head and insomnia [7, 13]: especially good effects | degree of improvement of subjective symptoms versus P group ([7]; level of significance lower than 5%): excellent over that in the P group at a level of significance lower than 5% | Improvement of subjective symptoms: Not Changed ([7]; number of patients, total 22): 3 | Improvement of subjective symptoms: Partial Improvement ([7]; number of patients, total 22): 6 | Improvement of subjective symptoms: Remarkable Improvement ([7]; number of patients, total 22): 7 | Improvement of subjective symptoms: Slight Improvement ([7]; number of patients, total 22): 6 | Improvement of subjective symptoms: Worsened ([7]; number of patients, total 22): 0 | side effect: constipation ([8]; among 41 patients): another patient complained of constipation | side effect: light lack of appetite ([8]; among 41 patients): one | side effects in other patients ([8]; among 41 patients): no side effect was observed | side effects versus conventional hypotensive agents [8, 13]: much more reduced in TN than in conventional hypotensive agents | other various blood tests and the like: undesirable side effects ([8]; human, in vivo): None of results of other various blood tests and the like were suggestive of undesirable, side effects | solubility in organic solvents (Solubility): easily soluble in acetone, benzene, chloroform, ether and ethanol | solubility in water (Solubility): hardly soluble in water
